The target of one data set is jack bean urease (Canavalia ensiformis, UniProt P07374). Kind of data set: biochemical. Particulars: for fold stronger inhibitory potential than thiourea: relative to thiourea IC50. The class given is biochemical. The method, then:
The indophenol method with a little modification was used to determine the urease inhibitory activity of synthetic compounds (5a-i) ([Weatherburn, 1967]; [Yaseen et al., 2016]). Thiourea was used as a standard inhibitor. The assay mixture was comprised of 40 μL of buffer (100 mmol/L urea, 0.01 mol/L K2HPO4, 1 mmol/L EDTA and 0.01 mol/L […], pH 8.2), 10 μL of jack bean urease (5 U/mL) and 10 μL of test compound (1 mM). The reaction mixture was incubated for 30 min with 10 μL urea (1 mM) at 37 °C in 96-well plate. The phenol reagent (40 μL, 1% w/v phenol, 0.005% w/v sodium nitroprusside) and alkali reagent (40 μL, 0.5% w/v NaOH, 0.1% active chloride NaOCl) were added to each well and after 10 min of incubation at 37 °C, the absorbance was measured at 630 nm using a microplate reader (Bio-Tek ELx 800™, Instruments, Inc. United States). The experiments to determine the inhibitory activity of compounds were performed in triplicates. The percentage inhibition was calculated by using the formula given below. Inhibition %=100 – Absorbance of the test compound/Absorbance of the control×100
Compounds showing >50% inhibition against urease were further evaluated for the determination of IC50 values at various concentrations (0.1, 0.3, 1, 3, 10, 30, 100, 300, 1,000 μM) against jack bean urease. The experiments were performed in triplicate. IC50 values were calculated by using the non-linear curve fitting program PRISM 5.0 (GraphPad, San Diego, California, United States) to analyze the results.

The next data set deals with urease (Canavalia ensiformis, UniProt P07374). Kind of data set: Kinetics analysis (Michaelis-Menten, Lineweaver-Burk plot). Particulars: urea 25-150 mM, inhibitor 0, 1.9, 3.8, 5.7 μM. The class given is biochemical, jack bean. The method, then: These experiments helped in the assessment of K m and V max values to predict the mechanism of urease inhibition by plotting reciprocal of reaction rate 1/V (y-axis) against reciprocal of substrate concentrations 1/[S] (x-axis).
Chain of urease (P07374 whole entry, looked up): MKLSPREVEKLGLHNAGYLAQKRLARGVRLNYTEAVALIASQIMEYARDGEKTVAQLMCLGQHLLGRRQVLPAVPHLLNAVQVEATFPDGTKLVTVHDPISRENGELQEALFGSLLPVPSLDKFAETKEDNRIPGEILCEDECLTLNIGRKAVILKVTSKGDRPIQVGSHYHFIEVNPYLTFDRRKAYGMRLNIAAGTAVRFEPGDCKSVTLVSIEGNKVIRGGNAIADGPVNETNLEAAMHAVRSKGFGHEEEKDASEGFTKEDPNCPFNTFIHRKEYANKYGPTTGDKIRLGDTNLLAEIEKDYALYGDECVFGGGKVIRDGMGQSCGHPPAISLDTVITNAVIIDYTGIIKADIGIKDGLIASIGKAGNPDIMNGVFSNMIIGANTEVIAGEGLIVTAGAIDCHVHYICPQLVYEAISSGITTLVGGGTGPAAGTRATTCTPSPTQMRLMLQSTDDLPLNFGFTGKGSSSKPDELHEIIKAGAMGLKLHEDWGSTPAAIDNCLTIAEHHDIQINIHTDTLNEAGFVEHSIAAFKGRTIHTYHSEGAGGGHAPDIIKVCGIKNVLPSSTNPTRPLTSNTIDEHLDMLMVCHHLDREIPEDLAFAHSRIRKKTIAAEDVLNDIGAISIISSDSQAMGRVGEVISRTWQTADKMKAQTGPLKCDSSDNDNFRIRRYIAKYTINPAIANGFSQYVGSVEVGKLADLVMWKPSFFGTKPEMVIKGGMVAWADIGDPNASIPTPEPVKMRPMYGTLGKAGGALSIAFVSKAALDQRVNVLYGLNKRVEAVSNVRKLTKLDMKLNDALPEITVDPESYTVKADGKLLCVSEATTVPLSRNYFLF
The rate of enzyme inhibition was accessed across numerous concentrations of substrate (25, 50, 100, 150 mM) and compound 5g (0, 1.9, 3.8, 5.7 μM) against urease. Afterwards, the data was plotted to obtain the Lineweaver-Burk plot by using GraphPad Prism version 10.2.1.

Results on 10 molecules are retold here after publication PMC11157103, “Exploration of morpholine-thiophene hybrid thiosemicarbazones for the treatment of ureolytic bacterial infections via targeting urease enzyme: Synthesis, biochemical screening and computational analysis” (Frontiers in Chemistry, 2024).

Like-named read-outs stand apart in the source and are kept apart here.

Chain of jack bean urease (P07374 whole entry, looked up): as above

`CC(=NNC(=S)NCCN1CCOCC1)c1sccc1Cl` [Compound 5e, 2-(1-(3-Chlorothiophen-2-yl)ethylidene)-N-(2-morpholinoethyl)hydrazinecarbothioamide] had a melting point of 116 to 118 °C. In addition, the IC50 against jack bean urease is 4.81 ± 1.5 µM.
The matching figures for `CC(=NNC(=S)NCCN1CCOCC1)c1cc(C)cs1` [Compound 5c, 2-(1-(4-Methylthiophen-2-yl)ethylidene)-N-(2-morpholinoethyl)hydrazinecarbothioamide]: 112 to 114 °C and 4 ± 2.4 µM.
Molecule `CC(=NNC(=S)NCCN1CCOCC1)c1ccc(C)s1` [Compound 5d, 2-(1-(5-Methylthiophen-2-yl)ethylidene)-N-(2-morpholinoethyl)hydrazinecarbothioamide] returned a melting point of 156 to 158 °C. Further, on jack bean urease, the IC50 amounted to 4.6 ± 2.6 µM and the “fold stronger inhibitory potential than thiourea” value stood at 4.8 fold.
Molecule `CC(=NNC(=S)NCCN1CCOCC1)c1ccc(Br)s1` [Compound 5h, 2-(1-(5-Bromothiophen-2-yl)ethylidene)-N-(2-morpholinoethyl)hydrazinecarbothioamide] gave a melting point of 148 to 150 °C. On jack bean urease, this molecule returned an IC50 of 3.98 ± 2.2 µM.
Turning to `CC(=NNC(=S)NCCN1CCOCC1)c1ccc(Cl)s1` [Compound 5g, 2-(1-(5-Chlorothiophen-2-yl)ethylidene)-N-(2-morpholinoethyl)hydrazinecarbothioamide], the melting point was 148 to 150 °C. Also, at jack bean urease, half-maximal inhibition (IC50) was put at 3.8 ± 1.9 µM. In addition, on urease, the “mechanism of urease inhibition” value is on record as “uncompetitive inhibition”.
`CC(=NNC(=S)NCCN1CCOCC1)c1cccs1` [Compound 5b, N-(2-morpholinoethyl)-2-(1-(thiophen-2-yl)ethylidene)hydrazinecarbothioamide]: the melting point lay in the range of 142 to 144 °C. For the same molecule, on jack bean urease, the IC50 stood at 4.96 ± 3 µM.
Take `S=C(NCCN1CCOCC1)NN=Cc1cccs1` [Compound 5a, N-(2-morpholinoethyl)-2-(thiophen-2-ylmethylene)hydrazinecarbothioamide]: at jack bean urease, the IC50 worked out at 4.94 ± 2.7 µM and the “fold stronger inhibitory potential than thiourea” value stood at 4.5 fold.
For `NC(N)=S` [Thiourea, reference compound], the IC50 at jack bean urease (jack bean urease, indophenol method, triplicate, read-out: Urease inhibition IC50 ± SEM) amounted to 22.31 ± 0.03 µM.
Take `CC(=NNC(=S)NCCN1CCOCC1)c1sccc1Br` [Compound 5f, 2-(1-(3-Bromothiophen-2-yl)ethylidene)-N-(2-morpholinoethyl)hydrazinecarbothioamide]: the melting point is 124 to 126 °C. In addition, the IC50 against jack bean urease amounted to 5.77 ± 0.7 µM.
`CC(=NNC(=S)NCCN1CCOCC1)c1ccc([N+](=O)[O-])s1` [Compound 5i, N-(2-morpholinoethyl)-2-(1-(5-nitrothiophen-2-yl)ethylidene)hydrazinecarbothioamide] had a melting point of 192 to 194 °C. At jack bean urease, this molecule displayed a concentration for half-maximal inhibition (IC50) of 3.9 ± 2.7 µM.

The IC50 is the point on the concentration scale where inhibition reaches its midpoint. What is called melting point is the temperature, or range, at which the solid turns liquid.
